Values joined by “and” are separate entries in the source; they are usually repeats but may differ in a detail not shown here. Equal values may be shown once.
Molecular target: T1, DmOctα1B receptor (Drosophila melanogaster, UniProt Q7JQF1)
T1 construct: expressed in transfected cells
T1 sequence (Q7JQF1 1-645): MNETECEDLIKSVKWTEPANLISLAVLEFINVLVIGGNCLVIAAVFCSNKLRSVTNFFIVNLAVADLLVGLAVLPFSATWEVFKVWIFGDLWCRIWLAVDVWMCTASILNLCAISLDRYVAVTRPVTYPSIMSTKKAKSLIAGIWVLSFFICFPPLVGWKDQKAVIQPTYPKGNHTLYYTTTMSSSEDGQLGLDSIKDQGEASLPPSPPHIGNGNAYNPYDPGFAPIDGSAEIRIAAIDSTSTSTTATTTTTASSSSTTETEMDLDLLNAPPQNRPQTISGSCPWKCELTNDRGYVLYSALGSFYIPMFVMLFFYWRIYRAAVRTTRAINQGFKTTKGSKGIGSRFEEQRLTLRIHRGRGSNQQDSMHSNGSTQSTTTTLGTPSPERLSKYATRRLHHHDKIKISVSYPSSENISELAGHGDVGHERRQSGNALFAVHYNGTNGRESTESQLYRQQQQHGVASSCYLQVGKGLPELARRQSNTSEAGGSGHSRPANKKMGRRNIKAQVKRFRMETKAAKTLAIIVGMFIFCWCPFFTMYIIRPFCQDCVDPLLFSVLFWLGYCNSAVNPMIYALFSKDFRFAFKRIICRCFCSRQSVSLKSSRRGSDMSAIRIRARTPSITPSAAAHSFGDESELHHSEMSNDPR
Assay: Stopped-flow Ca2+ fluorescence measurements, DmOctα1B-expressing HEK293 cells
Type: cell-based
Conditions: for response time: Fluo-4 or GCaMP3.0
Procedure: As described for the fluorimetric measurements performed in 96 well plates, the stimulation of the DmOctα1B receptors with octopamine results in an efflux of Ca^2+ from the intracellular stores, which was now analyzed by stopped-flow experiments with high temporal resolution. The cells loaded with Fluo-4 or constitutively expressing GCaMP3.0 were diluted in extracellular solution (ES) to a density of 1 × 10^6 cells/mL prior to application to the stopped-flow system. The cells were mixed with increasing ligand concentrations and the fluorescence signals were monitored for 40 s (Figure 3). The increasing ligand concentrations lead to a rise in the fluorescence intensities. The initial Ca^2+ responses were detected at 1 nM octopamine and saturated at ligand concentrations ≥ 30 nM. After reaching a maximum, the fluorescence intensities decreased (Figure 3A1). This effect was more pronounced for concentrations ≤ 30 nM. In the cells expressing GCaMP3.0 (DmOctα1B-GCaMP3.0), additional increases in Ca^2+ were resolved (Figure 3B1), probably monitoring the Ca^2+ oscillations that are known to be induced upon DmOctα1B activation. To determine the ligand affinities for the receptor, the maximal fluorescence intensities were plotted against the octopamine concentrations. […] The EC50 values were obtained from nonlinear fitting of the data, using GraphPad Prism v5.04. […] Besides the determination of the EC50 values, information about reaction velocities could be gained when analyzing the first 4 s of the measurements. The increasing octopamine concentrations correlated with faster signal detection (Figure 3A2,B2). […] The reaction velocities in a concentration range from 3 nM to 300 nM octopamine were almost identical for the Fluo-4-loaded and the GCaMP3.0-expressing cells.
For the stopped-flow measurements, the SFM-400 system (BioLogic, Münster, Germany) was used. The main component of the stopped-flow setup is the SFM-400 module with four 10 mL syringes, which can be filled by external valves. The syringes are driven by step motors. The reactants can be mixed in three individual mixing chambers (M1–M3). The volume between M1 and M2 is 21 µL, and 31 µL between M2 and M3. The observation chamber is a quartz cuvette (FC-15) with a reaction volume of 31 µL, installed behind M3. To avoid fluctuations of the reaction mixture in the cuvette, which might lead to noisy and inconsistent signals, a hard stop valve located behind the cuvette can be closed after injection of the reactants. The stopped-flow module is controlled via a MPS-60 control unit (BioLogic). Data acquisition and operation of the system were performed with the Bio-Kine 32 v4.74 software (BioLogic).
The reactions in the cuvette were analyzed via the changes in the fluorescence. A 150 W Xe/Hg-lamp (ALX-220; BioLogic) was used as a light source for the excitation. The excitation light was guided via a light guide towards the cuvette. To determine the wavelength of the excitation light, a 482 nm bandpass filter (482/35 nm BrightLine® single-band bandpass filter; Semrock, Rochester, NY, USA) was used. A heat protection filter (3 mm; KG1, Schott; Mainz, Germany) was placed between the Xe/Hg-lamp and the excitation filter. The fluorescence was detected with a photomultiplier (PMS 200, BioLogic) installed rectangularly to the light path of the excitation light. Between the cuvette and the photomultiplier tube a 535 nm bandpass emission filter (XF3007 535AF35; Horiba, Oberursel, Germany) was placed to select for the emission light being detected by the photomultiplier. A voltage of 600 V was applied to the photomultiplier.
The fluorescence measurements were performed either directly with the cells expressing GCaMP3.0 or after loading the cells with Fluo-4-AM. Changes in the intracellular Ca^2+ were induced by stimulating the cells with a concentration series of different ligands. In the stopped-flow module, four different solutions can be mixed. […]

response time (low ligand concentrations ≤ 3 nM (1 nM elsewhere in the source)): ~ 2 s and 2 s
Signal Response Time (saturating concentration, DmOctα1B cells loaded with Fluo-4, mean ± SEM): 0.35 ± 0.04 s
Signal Response Time (saturating concentration, DmOctα1B-GCaMP3.0 cells, mean ± SEM): 0.36 ± 0.05 s
Signal Response Time (saturating ligand concentration, DmOctα1B cell lines, Fluo-4 and GCaMP3.0): 0.35 s
response time (saturating octopamine concentrations (≥30 nM; 300 nM)): ~ 300 ms and ≈ 350 ms
concentration at which initial Ca2+ responses were detected (stopped-flow, DmOctα1B cells): 1 nM
ligand concentration at which Ca2+ responses saturated (stopped-flow, DmOctα1B cells): ≥ 30 nM
EC50 (stopped-flow, DmOctα1B cells loaded with Fluo-4, mean ± SEM): 2.25 nM and 2.3 nM
EC50 (stopped-flow, DmOctα1B-GCaMP3.0 cells, mean ± SEM): 1.7 ± 0.1 nM
SMILES: NCC(O)c1ccc(O)cc1 (stereo not drawn) [octopamine]

From publication PMC9369311, “Examination of Intracellular GPCR-Mediated Signaling with High Temporal Resolution” (International Journal of Molecular Sciences, 2022)
